Here are results for 13 compounds from article PMC9822396 (Molecules, 2022).

In one assay the target is T1, hMAO-A (Homo sapiens, UniProt P21397).
T1 construct: purchased Sigma-Aldrich
T1 sequence (P21397 1-527): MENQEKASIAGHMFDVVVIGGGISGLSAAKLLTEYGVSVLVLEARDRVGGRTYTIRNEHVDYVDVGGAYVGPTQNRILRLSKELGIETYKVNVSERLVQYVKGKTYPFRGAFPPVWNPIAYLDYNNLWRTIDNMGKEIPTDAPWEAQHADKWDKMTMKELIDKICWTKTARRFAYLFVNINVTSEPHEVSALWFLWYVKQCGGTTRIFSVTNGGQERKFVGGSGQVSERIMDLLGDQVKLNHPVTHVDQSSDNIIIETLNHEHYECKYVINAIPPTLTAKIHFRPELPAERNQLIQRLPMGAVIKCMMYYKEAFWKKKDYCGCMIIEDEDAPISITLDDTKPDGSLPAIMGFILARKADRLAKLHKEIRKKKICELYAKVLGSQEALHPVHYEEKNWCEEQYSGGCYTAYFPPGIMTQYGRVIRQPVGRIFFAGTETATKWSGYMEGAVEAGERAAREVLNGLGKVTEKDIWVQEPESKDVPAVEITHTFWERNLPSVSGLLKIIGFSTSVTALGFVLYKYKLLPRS
In words: biochemical. To be noted: for remaining activity at 10 µM: read-out: Residual Activity at 10 µM (%) hMAO-A. How it is done: (§1) All other chemicals were of reagent grade.
hMAO-A and -B activities were determined using a continuous spectrophotometric method, as described previously. […] AChE and BChE activities were assayed as described by Ellman et al., with slight modification. Reactions were performed using AChE and BChE in the 0.5 mL reaction mixtures including 0.5 mM substrate (ATCI and BTCI, respectively) and color reagent (DTNB). […] Reaction rates are expressed as changes in absorbance per min.. Inhibitory activities of AChE and BChE were measured after preincubating enzyme with inhibitors for 15 min before adding DTNB and each substrate.
Inhibitory types and Ki values were determined using Lineweaver-Burk plots and secondary plots of their slopes, respectively.

For assay [1], the target named is T2, hMAO-B (Homo sapiens, UniProt P27338).
T2 construct: purchased Sigma-Aldrich
T2 sequence (P27338 1-520): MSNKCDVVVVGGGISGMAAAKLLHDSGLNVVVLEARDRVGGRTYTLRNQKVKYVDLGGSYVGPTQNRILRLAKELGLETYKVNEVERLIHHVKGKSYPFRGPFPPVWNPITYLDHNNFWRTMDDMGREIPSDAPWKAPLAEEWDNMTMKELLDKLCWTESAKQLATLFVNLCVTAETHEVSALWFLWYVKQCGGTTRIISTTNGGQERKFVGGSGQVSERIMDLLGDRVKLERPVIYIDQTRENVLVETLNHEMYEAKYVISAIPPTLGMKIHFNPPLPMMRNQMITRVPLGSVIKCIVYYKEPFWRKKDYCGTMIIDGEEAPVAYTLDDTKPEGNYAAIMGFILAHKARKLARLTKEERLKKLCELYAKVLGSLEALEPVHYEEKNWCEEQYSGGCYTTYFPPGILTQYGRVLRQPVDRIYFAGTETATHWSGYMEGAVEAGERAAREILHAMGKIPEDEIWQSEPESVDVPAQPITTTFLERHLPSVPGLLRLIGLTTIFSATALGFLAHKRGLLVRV
Nature of the assay: biochemical. Type of assay: biochemical. To be noted: for remaining activity at 10 µM: read-out: Residual Activity at 10 µM (%) hMAO-B; for SI: hMAO-B selectivity: IC50 of hMAO-A divided by IC50 of hMAO-B. The procedure:
as §1
(§2) hMAO-A and -B activities were determined using a continuous spectrophotometric method, as described previously. […] AChE and BChE activities were assayed as described by Ellman et al., with slight modification. Reactions were performed using AChE and BChE in the 0.5 mL reaction mixtures including 0.5 mM substrate (ATCI and BTCI, respectively) and color reagent (DTNB). […] Reaction rates are expressed as changes in absorbance per min.. Inhibitory activities of AChE and BChE were measured after preincubating enzyme with inhibitors for 15 min before adding DTNB and each substrate. […]

The target in a further assay is T3, AChE (Electrophorus electricus, UniProt O42275).
T3 construct: purchased Sigma-Aldrich
T3 sequence (O42275 24-633): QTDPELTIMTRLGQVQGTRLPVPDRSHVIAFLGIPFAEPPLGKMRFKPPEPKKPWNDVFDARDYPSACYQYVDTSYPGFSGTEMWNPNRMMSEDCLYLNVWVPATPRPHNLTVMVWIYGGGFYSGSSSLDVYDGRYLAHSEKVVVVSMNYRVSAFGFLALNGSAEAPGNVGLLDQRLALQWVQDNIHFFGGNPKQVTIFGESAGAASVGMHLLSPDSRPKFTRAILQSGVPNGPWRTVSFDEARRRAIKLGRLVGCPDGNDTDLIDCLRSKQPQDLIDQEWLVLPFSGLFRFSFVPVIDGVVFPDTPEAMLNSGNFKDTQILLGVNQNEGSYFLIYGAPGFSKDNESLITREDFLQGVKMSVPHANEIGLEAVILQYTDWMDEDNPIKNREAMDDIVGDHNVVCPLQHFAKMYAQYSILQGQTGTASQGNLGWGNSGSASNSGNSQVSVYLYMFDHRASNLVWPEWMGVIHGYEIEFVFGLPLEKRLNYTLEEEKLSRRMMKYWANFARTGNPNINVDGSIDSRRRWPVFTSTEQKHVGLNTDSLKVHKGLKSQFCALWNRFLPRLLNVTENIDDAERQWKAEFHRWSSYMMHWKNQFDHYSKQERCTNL
Nature of the assay: AChE inhibition (Ellman method). To be noted: read-out: Residual Activity at 10 µM (%) AChE. The assay is classed as biochemical. How it is done:
as §1, §2
Background: Ellman's reagent forms a yellow product with free thiols.

The next assay addresses T4, BChE (Equus caballus, UniProt P81908).
T4 construct: BChE from equine serum; purchased Sigma-Aldrich; host or cells: equine serum
In words: BChE inhibition (Ellman method). Type of assay: biochemical, equine. To be noted: read-out: Residual Activity at 10 µM (%) BChE. How it is done: as §1, §2

A further assay concerns the target T5, BACE1 (Homo sapiens, UniProt P56817).
T5 construct: purchased Sigma-Aldrich
Nature of the assay: BACE1 inhibition (fluorescent activity detection kit). The assay is classed as biochemical. To be noted: read-out: Residual Activity at 10 µM (%) BACE1.

Assay [2] has as its target T2, hMAO-B. The following applies: read-out: hMAO-B inhibitory activity; cited from earlier work.

Like-named read-outs stand apart in the source and are kept apart here.

T5 sequence (P56817 46-501): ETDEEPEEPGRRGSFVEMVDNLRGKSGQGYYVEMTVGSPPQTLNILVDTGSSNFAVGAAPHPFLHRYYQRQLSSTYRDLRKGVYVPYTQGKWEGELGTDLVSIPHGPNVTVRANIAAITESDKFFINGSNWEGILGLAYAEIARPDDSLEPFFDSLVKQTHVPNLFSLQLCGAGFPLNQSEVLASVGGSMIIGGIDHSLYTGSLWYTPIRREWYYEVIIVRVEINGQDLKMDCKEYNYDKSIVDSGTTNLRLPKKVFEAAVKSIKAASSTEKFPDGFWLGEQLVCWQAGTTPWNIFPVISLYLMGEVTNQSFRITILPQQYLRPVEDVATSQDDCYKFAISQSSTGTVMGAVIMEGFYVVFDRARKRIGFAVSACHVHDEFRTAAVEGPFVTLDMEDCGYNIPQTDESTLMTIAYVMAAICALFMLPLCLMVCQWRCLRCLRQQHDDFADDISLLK
T4 sequence (P81908 whole entry): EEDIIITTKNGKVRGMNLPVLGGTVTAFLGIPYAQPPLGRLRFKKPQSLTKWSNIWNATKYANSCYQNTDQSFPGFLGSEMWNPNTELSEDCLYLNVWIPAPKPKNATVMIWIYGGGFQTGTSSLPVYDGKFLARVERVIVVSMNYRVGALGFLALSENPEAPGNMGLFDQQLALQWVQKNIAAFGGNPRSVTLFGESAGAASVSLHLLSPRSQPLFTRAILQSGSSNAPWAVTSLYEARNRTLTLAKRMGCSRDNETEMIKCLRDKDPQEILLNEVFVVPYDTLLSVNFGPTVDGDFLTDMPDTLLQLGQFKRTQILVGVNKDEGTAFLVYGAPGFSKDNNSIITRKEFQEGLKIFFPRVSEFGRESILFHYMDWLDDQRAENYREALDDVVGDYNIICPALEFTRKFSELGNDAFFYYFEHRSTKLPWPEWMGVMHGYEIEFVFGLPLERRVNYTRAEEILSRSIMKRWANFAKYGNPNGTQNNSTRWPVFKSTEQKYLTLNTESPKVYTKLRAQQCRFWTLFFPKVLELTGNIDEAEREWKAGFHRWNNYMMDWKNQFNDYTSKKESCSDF

Regarding `C[C@@H]1O[C@@H](OC[C@H]2O[C@@H](Oc3c(-c4ccc(O)c(O)c4)oc4cc(O)cc(O)c4c3=O)[C@H](O)[C@@H](O)[C@@H]2O)[C@H](O)[C@H](O)[C@H]1O` [Compound 1, rutin], the IC50 at hMAO-A and against hMAO-B [1] was over 40 µM throughout. The remaining activity at 10 µM at hMAO-A was found to be 96.8 ± 1.52%; at hMAO-B [1], 75.2 ± 6.76%; on AChE, 92.4 ± 7.16%; on BChE, 99.2 ± 0.88%; at BACE1, 82.6 ± 3.77%.
Consider `COc1cc2c(cc1O[C@@H]1O[C@H](CO)[C@@H](O)[C@H](O)[C@H]1O)O[C@H](c1ccccc1)[C@@H](O)C2=O` [Compound 2, (2R,3R)-3-hydroxy-7-O-β-D-glucopyranoside-6-methoxyflavanone], for which the IC50 against hMAO-A and at hMAO-B [1] was over 40 µM each time. Besides, the remaining activity at 10 µM amounted to 98.3 ± 2.01% on hMAO-A; 69.6 ± 2.46% at hMAO-B [1]; 84.8% at AChE; 97.5 ± 0.42% on BChE; 164 ± 2.96% at BACE1.
As for `COc1cc([C@H]2OC[C@H]3[C@@H]2CO[C@@H]3c2cc(OC)c(O[C@@H]3O[C@H](CO)[C@@H](O)[C@H](O)[C@H]3O)c(OC)c2)cc(OC)c1O` [Compound 3, (–)-syringaresinol-4-O-β-D-glucopyranoside], the IC50 against hMAO-A and against hMAO-B [1] was over 40 µM throughout. In addition, the remaining activity at 10 µM stood at 80 ± 2.02% on hMAO-A; 93.6 ± 3.47% at hMAO-B [1]; 95.22 ± 0.08% at AChE; 98.9 ± 1.54% at BChE; 76.7 ± 4.92% on BACE1.
In the case of `COc1ccc(-c2coc3cc(O[C@@H]4O[C@H](CO)[C@@H](O)[C@H](O)[C@H]4O)ccc3c2=O)cc1` [Compound 4, ononin], the IC50 is over 40 µM against hMAO-A and 28.5 ± 1.55 µM against hMAO-B [1]. Besides, the remaining activity at 10 µM was 98.3 ± 1.64% on hMAO-A; 63.5 ± 1.23% at hMAO-B [1]; 86.1 ± 1.79% on AChE; 96.7 ± 1.68% on BChE; 85.9 ± 0.08% on BACE1. The compound further gave an SI on hMAO-B [1] of over 1.40.
As for `COc1cc([C@H]2OC[C@H]3[C@@H]2CO[C@@H]3c2cc(OC)c(O)c(OC)c2)cc(OC)c1O` [Compound 5, (+)-syringaresinol], the results for the IC50 at hMAO-A and against hMAO-B [1] were over 40 µM and 24.3 ± 2.2 µM, respectively. Besides, the remaining activity at 10 µM at hMAO-A turned out to be 80.4 ± 6.57%; on hMAO-B [1] it was 63.2 ± 6.24%; at BACE1, 81.7 ± 4.01%.
Regarding `COc1cc2c(cc1O)O[C@H](c1ccccc1)[C@@H](O)C2=O` [Compound 6, (2R,3R)-3,7-dihydroxy-6-methoxyflavanone], the IC50 against hMAO-A and at hMAO-B [1] was over 40 µM throughout. Also, the remaining activity at 10 µM on hMAO-A stood at 94.8 ± 1.9%; at hMAO-B [1], 94.6 ± 4.21%; on AChE it was 84.3 ± 1.31%; at BChE, 91.8 ± 1.35%; at BACE1, 95.72 ± 0.86%.
Take `COc1cc(O)c2c(=O)c(-c3ccc(O)cc3O)coc2c1` [Compound 7, cajanin]: the IC50 against hMAO-A is 13.1 ± 0.23 µM; against hMAO-B [1], 5.18 ± 0.11 µM. Moreover, the remaining activity at 10 µM was determined as 56.9 ± 0.92% on hMAO-A; 31.6 ± 4.21% on hMAO-B [1]; 70.8 ± 7.2% at AChE; 86.9 ± 2.11% on BChE; 83.25 ± 0.45% at BACE1. Also, at hMAO-B [1], the SI is reported as 2.53.
Consider `COc1cc(O)c2c(=O)c(-c3ccc(O)cc3)coc2c1` [Compound 9, prunetin], for which the IC50 is 2.49 ± 0.32 µM at hMAO-A and 5.18 ± 0.059 µM against hMAO-B [1]. Also, the remaining activity at 10 µM stood at 24.8 ± 1.22% at hMAO-A; 30.8 ± 0.82% on hMAO-B [1]; 83.2 ± 4.76% on AChE; 93 ± 0.65% at BChE; 87.73 ± 0.59% at BACE1. At hMAO-B [1], this compound had an SI of 0.48.
Take `COc1cc(O)c2c(=O)c(-c3ccc(OC)c(O)c3)coc2c1` [Compound 10, 7,4′-dimethyl-3′-hydroxygenistein]: the IC50 stood at 8.05 ± 0.1 µM on hMAO-A and 3.47 ± 0.055 µM at hMAO-B [1]. Moreover, the remaining activity at 10 µM was 41 ± 1.09% at hMAO-A; 16.9 ± 2.47% on hMAO-B [1]; 78.4 ± 3.4% at AChE; 98.1 ± 1.98% on BChE; 78.86 ± 0.56% at BACE1. The SI at hMAO-B [1] stood at 2.32.
In the case of `COc1ccc(-c2coc3cc(OC)ccc3c2=O)cc1` [Compound 11, 7,4′-dimethoxyisoflavone], the IC50 on hMAO-A worked out at 9.8 ± 0.27 µM; against hMAO-B [1], 13.7 ± 0.1 µM. Also, the remaining activity at 10 µM came to 49.1 ± 2.25% at hMAO-A; 62 ± 1.09% on hMAO-B [1]; 82.7 ± 5.44% on AChE; 98.7 ± 0.66% on BChE; 91.96 ± 0.59% on BACE1. The same compound yielded an SI at hMAO-B [1] of 0.72.
With `COc1ccc2c(c1)OC[C@H]1c3cc4c(cc3O[C@@H]21)OCO4` [Compound 12, 3-methoxy-8,9-methylenedioxypterocarpan], the IC50 on hMAO-A is 12.5 ± 0.33 µM; against hMAO-B [1] it was 3.36 ± 0.09 µM. The remaining activity at 10 µM at hMAO-A is 60.3 ± 0.9%; on hMAO-B [1], 13 ± 0.72%; on AChE, 84.9 ± 0.61%; on BChE it was 93.6 ± 2.11%; on BACE1, 102.4 ± 0.4%. For the same compound, the SI on hMAO-B [1] was 3.72. Besides, on hMAO-B [1] (ratio of IC50 values versus compound 8), the “times lower MAO-B inhibition than compound 8” value is on record as 7.47 times.
`COc1ccc(-c2cc(=O)c3c(O)cc(OC)cc3o2)cc1` [acacetin 7-methyl ether]: at hMAO-B [2], the IC50 was 200 nM.
Turning to `COc1ccc(-c2coc3cc(O)ccc3c2=O)cc1O` [calycosin], on hMAO-B [2], the IC50 was 240 nM.
